Experimental data taken from patent publication US20060020004A1, “Isoxazolidine compounds for treatment of bacterial infections” (Infinity Pharmaceuticals, Inc., priority 2004, published 2006).
Values after ≈ are worked out from the molar mass of the structure shown.

Key:
[1] = system: Staphylococcus aureus (Smith) ATCC 19636; assay: MIC determination, S. aureus; type: cell-based; conditions: S. aureus ATCC 19636, 17 h; for MIC: Staphylococcus aureus, ATCC19636
Procedure: (§1) Susceptibility testing for bacterial cultures is performed according to the National Council for Clinical Laboratory Standards (NCCLS) protocol M100-S12, “Performance Standards for Antimicrobial Susceptibility Testing.” The bacterial strains recommended by NCCLS were obtained from the American Type Culutre Collection (ATCC) (Table) and were maintained on Mueller Hinton (MHA) agar plates plus or minus 3% lysed horse blood (see Table). The bacteria were grown in Cation adjusted Mueller Hinton Broth (CaMHB) for liquid growth and susceptibility testing. S. cerevisiae (yeast) is grown in yeast peptone dextrose (YPD) media.
(§2) All bacterial cultures were grown at 37 degrees Celsius. Fresh colonies of S. aureus and MRSA were inoculated into liquid media and grown overnight and diluted the next day to grow to mid-log (Table 2). E. faecalis and S. pneumonia mid-log cultures were started directly from colony on plates. To attain mid-log growth, cultures were grown to an optical density (OD) at A590 of 0.2-0.8 (see Table 2) and then diluted to proper OD to obtain 5×10^5 cells/mL.
(§3) Diluted bacterial cultures are added to compound plates with compound diluted 2-fold from 100 μg/mL to 0.2 μg/mL final concentration in DMSO. Control antibiotics are also added: vancomycin, linezolid, and penicillin. In 384 well plates, 0.5 μL compound is added followed by addition of 50 μL of culture. DMSO alone is included as a control. Plates incubated at 37 degrees Celsius for 17-24 h.
(§4) Plates with cells mixed with compounds are incubated for 17 h for S. aureus and yeast, 24 h for MRSA, and all Enterococcus and Streptococcus strains. Yeast plates are incubated […].
(§5) Viability is determined by reading plates at A590 to determine optical density of treated and untreated cells and determining growth inhibition relative to controls.

[2] = system: Methicillin resistant S. aureus ATCC 33591; assay: MIC determination, MRSA; type: cell-based, Staphylococcus aureus; conditions: MRSA ATCC 33591, 24 h; for MIC: Staphylococcus aureus
Procedure: as §1, §2, §3, §4, §5

[3] = system: Streptococcus pneumonia ATCC 49619; assay: MIC determination, S. pneumonia; type: cell-based; conditions: for MIC S. pneuomiae: ATCC 49619, 24 h; for MIC: Streptococcus pneumoniae, ATCC49619, 24 h, read-out: MIC S. pneuomiae
Procedure: as §1, §2, §3, §4, §5

[4] = system: Penicillin-res. S. pneumonia ATCC 700671; assay: MIC determination, PRSP; type: cell-based, Streptococcus pneumonia; conditions: ATCC 700671, 24 h; for MIC: Streptococcus pneumoniae
Procedure: as §1, §2, §3, §4, §5

[5] = system: Enterococcus faecalis ATCC 29212; assay: MIC determination, E. faecalis; type: cell-based; conditions: ATCC 29212, 24 h
Procedure: as §1, §2, §3, §4, §5

[6] = system: Van-intermediate E. faecalis ATCC 51299 / Van-resistant E. faecalis ATCC 700221; assay: MIC determination, VIRE/VRE; type: cell-based, Enterococcus faecalis; conditions: ATCC 51299 / 700221, 24 h
Procedure: The MICs were determined using a broth micro-dilution assay in accordance with that recommended by the National Committee for Clinical Laboratory Standards (NCCLS). The final bacterial inoculate contained approximately 5×10^5 cfu/mL and the plates were incubated at 35° C. for 18 h in ambient air (Streptococci in 5% CO2). The MIC was defined as the lowest drug concentration that prevented visible growth.
as §1, §2, §3, §4, §5

S. cerevisiae Δpdr5 = assay: MIC determination, yeast; type: cell-based; conditions: YPD, 30 degrees Celsius
Procedure: as §1, §3
Yeast cultures are started from a fresh colony into YPD media and then diluted to OD of 0.002. Diluted yeast is added to compound plates as bacteria but incubated at 30 degrees Celsius for 17 h. Controls are amphotericin B and voriconazole.
as §4, §5

| MIC ([5]; Enterococcus faecalis, ATCC29212) | Compound | MIC S. aureus [1] | MIC MRSA [2] | MIC S. pneuomiae [3] | MIC PRSP [4] | MIC E. faecalis [5] | MIC VIRE/VRE [6] | MIC S. cerevisiae Δpdr5 (S. cerevisiae Δpdr5) | MIC [1] | MIC [3] | MIC [4] | MIC [2] |
| --- | --- | --- | --- | --- | --- | --- | --- | --- | --- | --- | --- | --- |
| – | Cc1ccc(C=Cc2ccc(CN3OC(C(C)O)C(CO)C3C(=O)NCCc3c[nH]c4ccccc34)cc2)cc1 (stereo not drawn) | ** (the MIC is 5-90 μg/mL) | ** (the MIC is 5-90 μg/mL) | ** (the MIC is 5-90 μg/mL) | ** (the MIC is 5-90 μg/mL) | – | – | – | – | – | – | – |
| – | Cc1ccc(CCc2ccc(CN3OC(C(C)O)C(CO)C3C(=O)NCCc3c[nH]c4ccccc34)cc2)cc1 (stereo not drawn) | *** (the MIC is less than 5 μg/mL) | *** (the MIC is less than 5 μg/mL) | ** (the MIC is 5-90 μg/mL) | ** (the MIC is 5-90 μg/mL) | – | – | – | – | – | – | – |
| – | CC(O)C1ON(CC2CCCCC2)C(C(=O)NCCc2c[nH]c3ccccc23)C1CO (stereo not drawn) | ** (the MIC is 5-90 μg/mL) | * (the MIC is >90 μg/mL) | – | * (the MIC is >90 μg/mL) | ** (the MIC is 5-90 μg/mL) | – | – | – | – | – | – |
| – | CC(O)C1ON(Cc2ccc(C=Cc3ccc(C(F)(F)F)cc3)cc2)C(C(=O)NCCc2c[nH]c3ccccc23)C1CO (stereo not drawn) | ** (the MIC is 5-90 μg/mL) | ** (the MIC is 5-90 μg/mL) | ** (the MIC is 5-90 μg/mL) | ** (the MIC is 5-90 μg/mL) | – | – | – | – | – | – | – |
| – | CC(O)C1ON(Cc2ccccc2)C(C(=O)NCCc2c[nH]c3ccccc23)C1CO (stereo not drawn) | ** (the MIC is 5-90 μg/mL) | ** (the MIC is 5-90 μg/mL) | * (the MIC is >90 μg/mL) | * (the MIC is >90 μg/mL) | ** (the MIC is 5-90 μg/mL) | ** (the MIC is 5-90 μg/mL) | ** (the MIC is 5-90 μg/mL) | – | – | – | – |
| – | Cc1ccc(C#Cc2cccc(CN3OC(C(C)O)C(CO)C3C(=O)NCCc3c[nH]c4ccccc34)c2)cc1 (stereo not drawn) | *** (the MIC is less than 5 μg/mL) | *** (the MIC is less than 5 μg/mL) | ** (the MIC is 5-90 μg/mL) | ** (the MIC is 5-90 μg/mL) | ** (the MIC is 5-90 μg/mL) | ** (the MIC is 5-90 μg/mL) | ** (the MIC is 5-90 μg/mL) | – | – | – | – |
| – | CCOCCCNC(=O)[C@H]1[C@@H](CO)[C@@H]([C@@H](C)O)ON1Cc1ccc(C#Cc2ccc(C)cc2)cc1 | – | – | – | – | – | – | – | 5 to 90 µg/mL (≈ 10.4 to 187 µM) | 5 to 90 µg/mL (≈ 10.4 to 187 µM) | 5 to 90 µg/mL (≈ 10.4 to 187 µM) | – |
| – | Cc1ccc(C#Cc2ccc(CN3OC4CNCC4C3C(=O)NCCc3c[nH]c4ccccc34)cc2)cc1 (stereo not drawn) | – | – | – | – | – | – | – | 5 to 90 µg/mL (≈ 9.91 to 178 µM) | 5 to 90 µg/mL (≈ 9.91 to 178 µM) | 5 to 90 µg/mL (≈ 9.91 to 178 µM) | 5 to 90 µg/mL (≈ 9.91 to 178 µM) |
| – | CC(=O)c1ccc(-c2ccc(CN3OC(C(C)O)C(CO)C3C(=O)NCCc3c[nH]c4ccccc34)cc2)cc1 (stereo not drawn) | ** (the MIC is 5-90 μg/mL) | ** (the MIC is 5-90 μg/mL) | – | * (the MIC is >90 μg/mL) | ** (the MIC is 5-90 μg/mL) | – | – | – | – | – | – |
| – | Cc1ccc(C#Cc2ccc(CN3O[C@H]([C@@H](C)O)[C@H](CO)[C@@H]3CNCCc3c[nH]c4ccccc34)cc2)cc1.Cl | – | – | – | – | – | – | – | 5 to 90 µg/mL | > 90 µg/mL | > 90 µg/mL | 5 to 90 µg/mL |
| – | Cc1ccc(C#Cc2ccc(CN3OC(C(C)O)C(CO)C3C(=O)NCCc3c[nH]c4ccccc34)cc2)cc1 (stereo not drawn) [drawing 205] | *** (the MIC is less than 5 μg/mL) | *** (the MIC is less than 5 μg/mL) | ** (the MIC is 5-90 μg/mL) | ** (the MIC is 5-90 μg/mL) | ** (the MIC is 5-90 μg/mL) | ** (the MIC is 5-90 μg/mL) | ** (the MIC is 5-90 μg/mL) | – | – | – | – |
| 5 to 90 µg/mL (≈ 9.06 to 163 µM) | Cc1ccc(C#Cc2ccc(CN3O[C@H]([C@@H](C)O)[C@H](CO)[C@@H]3C(=O)NCCCNC(=O)OC(C)(C)C)cc2)cc1 | – | – | – | – | – | – | – | 5 to 90 µg/mL (≈ 9.06 to 163 µM) | – | 5 to 90 µg/mL (≈ 9.06 to 163 µM) | 5 to 90 µg/mL (≈ 9.06 to 163 µM) |
| – | CC(O)C1ON(Cc2ccc(C#Cc3ccc(Cl)cc3)cc2)C(C(=O)NCCc2c[nH]c3ccccc23)C1CO (stereo not drawn) | *** (the MIC is less than 5 μg/mL) | *** (the MIC is less than 5 μg/mL) | ** (the MIC is 5-90 μg/mL) | ** (the MIC is 5-90 μg/mL) | ** (the MIC is 5-90 μg/mL) | ** (the MIC is 5-90 μg/mL) | ** (the MIC is 5-90 μg/mL) | – | – | – | – |
| – | Cc1ccc(C#Cc2ccc(CN3OC(C(C)O)C(CO)C3C(=O)NCCc3cnc[nH]3)cc2)cc1 (stereo not drawn) | * (the MIC is >90 μg/mL) | ** (the MIC is 5-90 μg/mL) | * (the MIC is >90 μg/mL) | – | – | – | – | – | – | – | – |
| – | CC(O)C1ON(Cc2cccc(C#Cc3ccc(Cl)cc3)c2)C(C(=O)NCCc2c[nH]c3ccccc23)C1CO (stereo not drawn) | *** (the MIC is less than 5 μg/mL) | *** (the MIC is less than 5 μg/mL) | ** (the MIC is 5-90 μg/mL) | ** (the MIC is 5-90 μg/mL) | ** (the MIC is 5-90 μg/mL) | ** (the MIC is 5-90 μg/mL) | ** (the MIC is 5-90 μg/mL) | – | – | – | – |
| – | CC(O)C1ON(Cc2ccc(CCc3ccc(Cl)cc3)cc2)C(C(=O)NCCc2c[nH]c3ccccc23)C1CO (stereo not drawn) | ** (the MIC is 5-90 μg/mL) | ** (the MIC is 5-90 μg/mL) | ** (the MIC is 5-90 μg/mL) | ** (the MIC is 5-90 μg/mL) | – | – | – | – | – | – | – |
| – | CC(O)C1ON(Cc2ccc(C=Cc3ccccc3)cc2)C(C(=O)NCCc2c[nH]c3ccccc23)C1CO (stereo not drawn) [drawing 219] | *** (the MIC is less than 5 μg/mL) | ** (the MIC is 5-90 μg/mL) | ** (the MIC is 5-90 μg/mL) | ** (the MIC is 5-90 μg/mL) | * (the MIC is >90 μg/mL) | * (the MIC is >90 μg/mL) | – | – | – | – | – |
| – | CC(O)C1ON(Cc2ccc(C=Cc3ccc(Cl)cc3)cc2)C(C(=O)NCCc2c[nH]c3ccccc23)C1CO (stereo not drawn) | *** (the MIC is less than 5 μg/mL) | *** (the MIC is less than 5 μg/mL) | ** (the MIC is 5-90 μg/mL) | ** (the MIC is 5-90 μg/mL) | *** (the MIC is less than 5 μg/mL) | * (the MIC is >90 μg/mL) | * (the MIC is >90 μg/mL) | – | – | – | – |
